Assay results from US8530493B2, “Indolopyridines as Eg5 kinesin modulators” (4SC AG, priority 2006, dated 2013).

Tested on: RKO p21 uninduced (proliferating) colon adenocarcinoma cells
Experiment: Alamar Blue cell viability assay, RKO p21 uninduced (proliferating)
Assay type: cell-based
Conditions: Homo sapiens, Table B3, anti-proliferative/cytotoxic activity, 72 hours, read-out: −log EC50 RKO p21 uninduced (proliferating) (converted)
How it was run: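 RKO p21 or p27 subclones grown without Ponasterone A, i.e. proliferating, exposed 24 h after seeding to semi-log compound dilutions in DMEM/10% FCS (1% DMSO controls) for 72 h at 37° C. Alamar Blue fluorescence (544/590 nm) read relative to untreated cells; EC50 from dose-response curves, given as −log EC50 (mol/l).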

Row | Compound | EC50
1 | CCN(CC)CCCN1C(=O)N2[C@H](c3cccc(O)c3)c3[nH]c4ccc(Br)cc4c3C[C@@]2(C)C1=O (racemic) [Example 228, (3aSR,10RS)-6-Bromo-2-(3-diethylamino-propyl)-10-(3-hydroxy-phenyl)-3a-methyl-3a,4,9,10-tetrahydro-2,9,10a-triaza-cyclopenta[b]fluorene-1,3-dione] | ≤ 39.8 nM
2 | CN(CCO)CCCN1C(=O)N2[C@H](c3cccc(O)c3)c3[nH]c4ccc(OC(F)F)cc4c3C[C@@]2(C)C1=O (racemic) [Example 453, (3aSR,10RS)-6-(1,1-Difluoro-methoxy)-2-{3-[(2-hydroxy-ethyl)-methyl-amino]-propyl}-10-(3-hydroxy-phenyl)-3a-methyl-3a,4,9,10-tetrahydro-2,9,10a-triaza-cyclopenta[b]fluorene-1,3-dione] | ≤ 39.8 nM
3 | CN1CCN(CCCN2C(=O)N3[C@H](c4cccc(O)c4)c4[nH]c5ccc(Cl)cc5c4C[C@@]3(C)C2=O)CC1 (racemic) [Example 175, (3aSR,10RS)-6-Chloro-10-(3-hydroxy-phenyl)-3a-methyl-2-[3-(4-methyl-piperazin-1-yl)-propyl]-3a,4,9,10-tetrahydro-2,9,10a-triaza-cyclopenta[b]fluorene-1,3-dione] | ≤ 39.8 nM
4 | COc1ccc2[nH]c3c(c2c1F)C[C@@]1(C)C(=O)N(CCNC(C)C)C(=O)N1[C@@H]3c1cccc(O)c1 (racemic) [Example 408, (3aSR,10RS)-5-Fluoro-10-(3-hydroxy-phenyl)-2-{2-isopropylamino-ethyl)-6-methoxy-3a-methyl-3a,4,9,10-tetrahydro-2,9,10a-triaza-cyclopenta[b]fluorene-1,3-dione] | 39.8 to 251 nM
5 | COc1ccc2[nH]c3c(c2c1)C[C@@]1(C)C(=O)N(CCCNCC(C)C)C(=O)N1[C@@H]3c1cccc(O)c1 [Example 534, (3aS,10R)-10-(3-Hydroxy-phenyl)-2-(3-isobutylamino-propyl)-6-methoxy-3a-methyl-3a,4,9,10-tetrahydro-2,9,10a-triaza-cyclopenta[b]fluorene-1,3-dione] | ≤ 39.8 nM
6 | COc1ccc2[nH]c3c(c2c1)C[C@@]1(C)C(=O)N(CCCNC(C)(C)C)C(=O)N1[C@@H]3c1cccc(O)c1 (racemic) [Example 167, (3aSR,10RS)-2-(3-tert-Butylamino-propyl)-10-(3-hydroxy-phenyl)-6-methoxy-3a-methyl-3a,4,9,10-tetrahydro-2,9,10a-triaza-cyclopenta[b]fluorene-1,3-dione] | ≤ 39.8 nM
7 | COc1ccc2[nH]c3c(c2c1)C[C@@]1(C)C(=O)N(CCCN2CCN(C)CC2)C(=O)N1[C@@H]3c1cccc(O)c1 (racemic) [Example 150, (3aSR,10RS)-10-(3-Hydroxy-phenyl)-6-methoxy-3a-methyl-2-[3-(4-methyl-piperazin-1-yl)-propyl]-3a,4,9,10-tetrahydro-2,9,10a-triaza-cyclopenta[b]fluorene-1,3-dione] | ≤ 39.8 nM
8 | C#CCNCCCN1C(=O)N2[C@H](c3cccc(O)c3)c3[nH]c4ccc(OC)cc4c3C[C@@]2(C)C1=O [Example 539, (3aS,10R)-10-(3-Hydroxy-phenyl)-6-methoxy-3a-methyl-2-(3-prop-2-ynylamino-propyl)-3a,4,9,10-tetrahydro-2,9,10a-triaza-cyclopenta[b]fluorene-1,3-dione] | ≤ 39.8 nM
9 | CN(CCO)CCN1C(=O)N2[C@H](c3cccc(O)c3)c3[nH]c4cc(F)c(Cl)cc4c3C[C@@]2(C)C1=O (racemic) [Example 348, (3aSR,10RS)-6-Chloro-7-fluoro-2-{2-[(2-hydroxy-ethyl)-methyl-amino]-ethyl}-10-(3-hydroxy-phenyl)-3a-methyl-3a,4,9,10-tetrahydro-2,9,10a-triaza-cyclopenta[b]fluorene-1,3-dione] | 39.8 to 251 nM
10 | CCNCCCN1C(=O)N2[C@H](c3cccc(O)c3)c3[nH]c4ccc(Br)cc4c3C[C@@]2(C)C1=O (racemic) [Example 212, (3aSR,10RS)-6-Bromo-2-(3-ethylamino-propyl)-10-(3-hydroxy-phenyl)-3a-methyl-3a,4,9,10-tetrahydro-2,9,10a-triaza-cyclopenta[b]fluorene-1,3-dione] | ≤ 39.8 nM
11 | C[C@@]12Cc3c([nH]c4ccc(Br)cc34)[C@@H](c3cccc(O)c3)N1C(=O)N(CCCN1CCCCC1)C2=O (racemic) [Example 373, (3aSR,10RS)-6-Bromo-10-(3-hydroxy-phenyl)-3a-methyl-2-(3-piperidin-1-yl-propyl)-3a,4,9,10-tetrahydro-2,9,10a-triaza-cyclopenta[b]fluorene-1,3-dione] | ≤ 39.8 nM
12 | C[C@@]12Cc3c([nH]c4ccc(Cl)cc34)[C@@H](c3cccc(O)c3)N1C(=O)N(CCCN1CC=CCC1)C2=O (racemic) [Example 174, (3aSR,10RS)-6-Chloro-2-[3-(3,6-dihydro-2H-pyridin-1-yl)-propyl]-10-(3-hydroxy-phenyl)-3a-methyl-3a,4,9,10-tetrahydro-2,9,10a-triaza-cyclopenta[b]fluorene-1,3-dione] | ≤ 39.8 nM
13 | C#CCN(C)CCN1C(=O)N2[C@H](c3cccc(O)c3)c3[nH]c4ccc(Br)cc4c3C[C@@]2(C)C1=O (racemic) [Example 382, (3aSR,10RS)-6-Bromo-10-(3-hydroxy-phenyl)-3a-methyl-2-[2-(methyl-prop-2-ynyl-amino)-ethyl]-3a,4,9,10-tetrahydro-2,9,10a-triaza-cyclopenta[b]fluorene-1,3-dione] | 39.8 to 251 nM
14 | CCNCCCN1C(=O)N2[C@H](c3cccc(O)c3)c3[nH]c4cc(F)c(OC)cc4c3C[C@@]2(C)C1=O (racemic) [Example 330, (3aSR,10RS)-2-(3-Ethylamino-propyl)-7-fluoro-10-(3-hydroxy-phenyl)-6-methoxy-3a-methyl-3a,4,9,10-tetrahydro-2,9,10a-triaza-cyclopenta[b]fluorene-1,3-dione] | 39.8 to 251 nM
15 | C=CCN(C)CCN1C(=O)N2[C@H](c3cccc(O)c3)c3[nH]c4cc(F)c(Cl)cc4c3C[C@@]2(C)C1=O (racemic) [Example 362, (3aSR,10RS)-2-[2-(Allyl-methyl-amino)-ethyl]-6-chloro-7-fluoro-10-(3-hydroxy-phenyl)-3a-methyl-3a,4,9,10-tetrahydro-2,9,10a-triaza-cyclopenta[b]fluorene-1,3-dione] | 39.8 to 251 nM
16 | COc1cc2c3c([nH]c2cc1F)[C@@H](c1cccc(O)c1)N1C(=O)N(CCN2CCN(C)CC2)C(=O)[C@]1(C)C3 (racemic) [Example 266, (3aSR,10RS)-7-Fluoro-10-(3-hydroxy-phenyl)-6-methoxy-3a-methyl-2-[2-(4-methyl-piperazin-1-yl)-ethyl]-3a,4,9,10-tetrahydro-2,9,10a-triaza-cyclopenta[b]fluorene-1,3-dione] | 39.8 to 251 nM
17 | CCOc1ccc2[nH]c3c(c2c1)C[C@@]1(C)C(=O)N(CCCN(C)CC)C(=O)N1[C@@H]3c1cccc(O)c1 (racemic) [Example 192, (3aSR,10RS)-6-Ethoxy-2-[3-(ethyl-methyl-amino)-propyl]-10-(3-hydroxy-phenyl)-3a-methyl-3a,4,9,10-tetrahydro-2,9,10a-triaza-cyclopenta[b]fluorene-1,3-dione] | 39.8 to 251 nM
18 | C=CCNCCN1C(=O)N2[C@H](c3cccc(O)c3)c3[nH]c4ccc(OCC)cc4c3C[C@@]2(C)C1=O (racemic) [Example 157, (3aSR,10RS)-2-(2-Allylamino-ethyl)-6-ethoxy-10-(3-hydroxy-phenyl)-3a-methyl-3a,4,9,10-tetrahydro-2,9,10a-triaza-cyclopenta[b]fluorene-1,3-dione] | ≤ 39.8 nM
19 | COc1ccc2[nH]c3c(c2c1)C[C@@]1(C)C(=O)N(CCCNCCO)C(=O)N1[C@@H]3c1cccc(O)c1 [Example 536, (3aS,10R)-2-[3-(2-Hydroxy-ethylamino)-propyl]-10-(3-hydroxy-phenyl)-6-methoxy-3a-methyl-3a,4,9,10-tetrahydro-2,9,10a-triaza-cyclopenta[b]fluorene-1,3-dione] | ≤ 39.8 nM
20 | C=CCN(C)CCCN1C(=O)N2[C@H](c3cccc(O)c3)c3[nH]c4cc(F)c(Cl)cc4c3C[C@@]2(C)C1=O (racemic) [Example 472, (3aSR,10RS)-2-[3-(Allyl-methyl-amino)-propyl]-6-chloro-7-fluoro-10-(3-hydroyx-phenyl)-3a-methyl-3a,4,9,10-tetrahydro-2,9,10a-triaza-cyclopenta[b]fluorene-1,3-dione] | 39.8 to 251 nM
21 | CCOc1ccc2[nH]c3c(c2c1)C[C@@]1(C)C(=O)N(CCNC2CC2)C(=O)N1[C@@H]3c1cccc(O)c1 (racemic) [Example 161, (3aSR,10RS)-2-(2-Cyclopropylamino-ethyl)-6-ethoxy-10-(3-hydroxy-phenyl)-3a-methyl-3a,4,9,10-tetrahydro-2,9,10a-triaza-cyclopenta[b]fluorene-1,3-dione] | 39.8 to 251 nM
22 | CNCCCN1C(=O)N2[C@H](c3cccc(O)c3)c3[nH]c4ccc(Br)cc4c3C[C@@]2(C)C1=O (racemic) [Example 211, (3aSR,10RS)-6-Bromo-10-(3-hydroyx-phenyl)-3a-methyl-2-(3-methylamino-propyl)-3a,4,9,10-tetrahydro-2,9,10a-triaza-cyclopenta[b]fluorene-1,3-dione] | ≤ 39.8 nM
23 | CCNCCN1C(=O)N2[C@H](c3cccc(O)c3)c3[nH]c4ccc(Br)cc4c3C[C@@]2(C)C1=O (racemic) [Example 393, (3aSR,10RS)-6-Bromo-2-(2-ethylamino-ethyl)-10-(3-hydroxy-phenyl)-3a-methyl-3a,4,9,10-tetrahydro-2,9,10a-triaza-cyclopenta[b]fluorene-1,3-dione] | ≤ 39.8 nM
24 | CCOc1ccc2[nH]c3c(c2c1)C[C@@]1(C)C(=O)N(CCCN(C)C(C)C)C(=O)N1[C@@H]3c1cccc(O)c1 (racemic) [Example 197, (3aSR,10RS)-6-Ethoxy-10-(3-hydroxy-phenyl)-2-[3-(isopropyl-methyl-amino)-propyl]-3a-methyl-3a,4,9,10-tetrahydro-2,9,10a-triaza-cyclpenta[b]fluorene-1,3-dione] | 39.8 to 251 nM
